{
  "source": "patent US11926860B2",
  "about": "“Method of screening inhibitor of caspase activity by lipopolysaccharide” (KOREA INSTITUTE OF SCIENCE AND TECHNOLOGY, priority 2021, dated 2024)",
  "molecules": {"B1": {"name": "CARD: caspase activation and recruitment domain of Casp-4, residues 1-80, His6 tag at the N-terminus (protein)", "chain": "MAEGNHRKKPLKVLESLGKDFLTGVLDNLVEQNVLNWKEEEKKKYYDAKTEDKVRVMADSMQEKQRMAGQMLLQTFFNID", "modifications": "N-terminal His6 tag; Caspase-4 CARD polypeptide"}, "B2": {"name": "ALEXA FLOUR 488-CARD: ALEXA FLUOR 488-labeled His-Cys-CARD (M1C-CARD), tracer for FP assays (conjugate, UniProt P49662 1-80, looked up, fragment M1C)", "chain": "B1 chain with M1C", "modifications": "CARD Alexa Fluor 488 label; His tag", "notes": "ALEXA FLUOR 488-labeled His-Cys-CARD (M1C-CARD), tracer for FP assays"}, "B3": {"name": "C258A-Casp-4: Catalytically inactive full-length Casp-4 (1-377, C258A modification) (protein, UniProt P49662 1-377, looked up, variant C258A)", "chain": "MAEGNHRKKPLKVLESLGKDFLTGVLDNLVEQNVLNWKEEEKKKYYDAKTEDKVRVMADSMQEKQRMAGQMLLQTFFNIDQISPNKKAHPNMEAGPPESGESTDALKLCPHEEFLRLCKERAEEIYPIKERNNRTRLALIICNTEFDHLPPRNGADFDITGMKELLEGLDYSVDVEENLTARDMESALRAFATRPEHKSSDSTFLVLMSHGILEGICGTVHDEKKPDVLLYDTIFQIFNNRNCLSLKDKPKVIIVQAARGANRGELWVRDSPASLEVASSQSSENLEEDAVYKTHVEKDFIAFCSSTPHNVSWRDSTMGSIFITQLITCFQKYSWCCHLEEVFRKVQQSFETPRAKAQMPTIERLSMTRYFYLFPGN", "modifications": "full-length"}, "B4": {"name": "ΔCARD-C258A-Casp-4: CARD truncated Casp-4 (81-377, C258A modification) (protein, UniProt P49662 81-377, looked up, fragment C258A)", "chain": "QISPNKKAHPNMEAGPPESGESTDALKLCPHEEFLRLCKERAEEIYPIKERNNRTRLALIICNTEFDHLPPRNGADFDITGMKELLEGLDYSVDVEENLTARDMESALRAFATRPEHKSSDSTFLVLMSHGILEGICGTVHDEKKPDVLLYDTIFQIFNNRNCLSLKDKPKVIIVQAARGANRGELWVRDSPASLEVASSQSSENLEEDAVYKTHVEKDFIAFCSSTPHNVSWRDSTMGSIFITQLITCFQKYSWCCHLEEVFRKVQQSFETPRAKAQMPTIERLSMTRYFYLFPGN"}},
  "key": {"binding of CARD and LPS": {"molecular_target": "T1, binding of CARD and LPS (Homo sapiens, UniProt P49662, M1C)", "T1 construct": "three types of cysteine-inserted CARD(1-80) variants (Cys-His-CARD, His-Cys-CARD (M1C-CARD), and His-CARD-Cys); His6 (N); made in house; host or cells: E. coli CLEARCOLI BL21(DE3)", "T1 sequence (P49662 1-80 M1C)": "B1 chain with M1C", "assay": "FP competition assay of hit compounds", "conditions": "compound 50 μM to 0.022 μM, 6.4 μM LPS-Ra, 50 nM tracer, buffer C, 37° C. 1 hour", "protocol": "In detail, the FP competition assay was performed by mixing 50 nM of tracer, 6.4 μM of LPS-Ra, and 3-fold serially diluted hit compound (50 μM to 0.022862 μM) in buffer C. The mixture was incubated at 37° C. for 1 hour before measurement. FP values were expressed as a function of compound concentrations, and IC50 values were obtained from a sigmoidal curve fit, as analyzed in GRAPHPAD PRISM 8."}, "[1]": {"assay": "FP binding assay of ALEXA FLUOR 488-CARD and LPS", "conditions": "for effect of additive on binding of CARD and LPS: buffer C with 0.1 mg/mL BSA, 0.01% NP-40, or 1 mM MC (MgCl2+CaCl2), 37° C. 1 hour", "protocol": "Fluorescence polarization (FP) was measured with an APPLISKAN microplate reader (ThermoFisher) using 485 nm excitation and 535 nm emission filters. The FP value was calculated according to the following equation: FP (mP)=1000×(Is−G×Ip)/(Is+G×Ip). In the equation, Is represents a parallel (equivalent) emission intensity, Ip represents a perpendicular emission intensity, and G represents a lattice coefficient 0.877.\nFP binding assay was performed by adding 200 μL of a reaction mixture to each well of a black 96-well plate (SPL Life Sciences). The reaction mixture includes 50 nM ALEXA FLUOR 488-CARD (tracer) with increasing concentrations of LPS-Ra (in the range of 0 μM to 12.8 μM, a molecular weight of LPS-Ra is assumed to be 3,835 g/mole, Sigma-Aldrich) in a buffer C or an indicated buffer. The reaction mixture was incubated at 37° C. for 30 minutes to 4 hours before reaction. FP values are expressed as a function of LPS-Ra concentration. FP binding curves of His-Cys-CARD (ALEXA FLUOR 488-CARD) or ALEXA FLUOR 488 alone (dye) with respect to the concentrations of LPS are shown in FIG. 2E.\nApparent equilibrium dissociation constants (Kd^app) were calculated from the nonlinear regression curve fit, as analyzed in GRAPHPAD PRISM 8 from the FP binding curves.\nAn FP binding curve from FP values measured with buffer C (50 mM Tris-HCl pH 7.0, 150 mM NaCl) supplemented with additives such as 0.1 mg/mL BSA, 0.01% NP-40, or 1 mM MC (MgCl2+CaCl2) is shown in FIG. 3A. An FP binding curve from FP values measured by incubating ALEXA FLOUR 488-CARD serially diluted with buffer C for 0.5 hours to 4 hours is shown in FIG. 3B (grey area: range of 20 nM to 50 nM). An FP binding curve from FP values measured by incubating different concentrations of LPS-Ra in buffer C for 0.5 hours to 4 hours is shown in FIG. 3D. An FP binding curve from FP values measured with buffer C supplemented with different concentrations of DMSO is shown in FIG. 3E. In addition, LPS-Ra concentration-dependent Z′ factor was evaluated in buffer C supplemented with 0% to 10% DMSO. […]"}, "[2]": {"assay": "Surface plasmon resonance (SPR) of Casp-4 constructs on immobilized LPS", "type": "binding, E. coli", "conditions": "for Kd: 25° C., NH-LPS O55:B5 on CM5 chip, HBS-E, read-out: dissociation constant", "protocol": "In addition, the binding affinity between Casp-4 and LPS was determined by a surface plasmon resonance (SPR) experiment. The SPR experiment was performed at 25° C. using a BIACORE T200 (Cytiva). A filtered and degassed running buffer (HBS-E) was prepared prior to use. Amine-derived LPS O55:B5 (NH-LPS, Sigma-Aldrich) was prepared by a method described in P. T. Wong et al., J Mater Chem B, 2015, 3, 1149-1156, herein incorporated by reference. NH-LPS was immobilized on a CM5 sensor chip (Cytiva) using an amine coupling method (480 RU), and blocked with 1 M ethanolamine (pH 8.5). Purified proteins of the indicated concentration were injected, and the resulting sensorgrams were analyzed using a BIACORE T200 Evaluation software."}, "[3]": {"assay": "Tryptophan fluorescence spectrometry of Casp-4 constructs binding to LPS", "conditions": "for Kd: 1 μM protein, LPS-Ra 0 μM to 50 μM, HBS-E buffer, 37° C. 30 minutes, fluorescence intensity at 334 nm, read-out: apparent equilibrium dissociation constant (Kd^app)", "protocol": "Apparent dissociation constants were measured by tryptophan fluorescence spectrometry. […] Apparent dissociation constant values were calculated by analyzing the fluorescence emission spectra.\nFluorescence spectra were obtained with a FluoroMate FS-2 fluorescence spectrophotometer (Sinco) equipped with a quartz cuvette with a 5 mm path length. 1 μM of the recombinant protein was mixed with increasing concentrations of LPS-Ra (in the range of 0 μM to 50 μM) in an HBS-E buffer (10 mM HEPES pH 7.5, 150 mM NaCl, 3 mM EDTA), and incubated at 37° C. for 30 minutes. The sample was excited at 280 nm, and emission spectra at 300 nm to 500 nm were recorded with an excitation/emission slit width of 2.5/5 nm, respectively. The fluorescence intensity of the sample was corrected by subtracting the background intensity of LPS alone. A difference in the fluorescence intensity at 334 nm was expressed as a function of LPS-Ra concentration, and the apparent equilibrium dissociation constant (Kd^app) was calculated from the nonlinear regression curve fit, as analyzed in GRAPHPAD PRISM 8. Graphs showing the emission spectra of the tryptophan residue in full-length C258A-Casp-4, CARD, and ΔCARD-C258A-Casp-4 in LPS-Ra (0 μM to 50 μM) are shown in FIG. 1B."}},
  "note": "Changes are numbered by the printed parent chain. Numbers in names are those of the source.",
  "data": [
    {"molecule": "CN(C)c1ccc(C(=C2C=CC(=[N+](C)C)C=C2)c2ccc(N(C)C)cc2)cc1", "note": "[C-5, Crystal violet]", "values": [
      {"measurement": "IC50 (FP signal decrease, concentration-dependent)", "setting": "binding of CARD and LPS", "result": "μM level"}
    ]},
    {"molecule": "O=C1c2c(O)ccc(O)c2C(=O)c2c(NCCNCCO)ccc(NCCNCCO)c21", "note": "[C-6, Mitoxantrone]", "values": [
      {"measurement": "IC50 (FP signal decrease, concentration-dependent)", "setting": "binding of CARD and LPS", "result": "μM level"}
    ]},
    {"molecule": "CCOc1ccc2nc3cc(N)ccc3c(N)c2c1", "note": "[C-8, Ethacridine lactate]", "values": [
      {"measurement": "IC50 (FP signal decrease, concentration-dependent)", "setting": "binding of CARD and LPS", "result": "μM level"}
    ]},
    {"molecule": "CC1=NN(c2ccc(C)c(C)c2)C(=O)/C1=N\\Nc1cccc(-c2cccc(C(=O)O)c2)c1O", "note": "[C-11, Eltrombopag Olamine]", "values": [
      {"measurement": "IC50 (FP signal decrease, concentration-dependent)", "setting": "binding of CARD and LPS", "result": "μM level"}
    ]},
    {"molecule": "Cn1cc(C2=C(c3cn(C4CCN(Cc5ccccn5)CC4)c4ccccc34)C(=O)NC2=O)c2ccccc21", "note": "[C-13, Enzastaurin]", "values": [
      {"measurement": "IC50 (FP signal decrease, concentration-dependent)", "setting": "binding of CARD and LPS", "result": "μM level"}
    ]},
    {"molecule": "CN1CCN(c2nc(C3=C(c4c[nH]c5ccccc45)C(=O)NC3=O)c3ccccc3n2)CC1", "note": "[C-15, Sotrastaurin]", "values": [
      {"measurement": "IC50 (FP signal decrease, concentration-dependent)", "setting": "binding of CARD and LPS", "result": "μM level"}
    ]},
    {"molecule": "Cc1cc(Nc2ncc(Cl)c(Nc3ccccc3S(=O)(=O)C(C)C)n2)c(OC(C)C)cc1C1CCNCC1", "note": "[C-16, Ceritinib]", "values": [
      {"measurement": "IC50 (FP signal decrease, concentration-dependent)", "setting": "binding of CARD and LPS", "result": "μM level"}
    ]},
    {"molecule": "CN1CCN(c2ccc(C(=O)Nc3n[nH]c4ccc(Cc5cc(F)cc(F)c5)cc34)c(NC3CCOCC3)c2)CC1", "note": "[C-19, Entrectinib]", "values": [
      {"measurement": "IC50 (FP signal decrease, concentration-dependent)", "setting": "binding of CARD and LPS", "result": "μM level"}
    ]},
    {"molecule": "NP-40", "values": [
      {"measurement": "effect of additive on binding of CARD and LPS", "setting": "[1]", "result": "inhibited"}
    ]},
    {"molecule": "bovine serum albumin [BSA]", "values": [
      {"measurement": "effect of additive on binding of CARD and LPS", "setting": "[1]", "result": "inhibited"}
    ]},
    {"molecule": "B1", "values": [
      {"measurement": "Kd", "setting": "[2]", "result": 2100, "unit": "nM"},
      {"measurement": "Kd", "setting": "[3]", "result": "6500 ± 800", "unit": "nM"}
    ]},
    {"molecule": "B2", "values": [
      {"measurement": "Kd", "setting": "[1]; 50 nM ALEXA FLOUR 488-CARD, LPS-Ra 0 μM to 12.8 μM, buffer C, 37° C., read-out: Kd^app", "result": "2200 ± 200", "unit": "nM"}
    ]},
    {"molecule": "B3", "values": [
      {"measurement": "Kd", "setting": "[2]", "result": 2400, "unit": "nM"},
      {"measurement": "Kd", "setting": "[3]", "result": "5300 ± 500", "unit": "nM"}
    ]},
    {"molecule": "B4", "values": [
      {"measurement": "binding to LPS", "setting": "[2]; FIG. 1C", "result": "not identified"},
      {"measurement": "binding to LPS", "setting": "[3]; tryptophan fluorescence, FIG. 1B", "result": "not identified"}
    ]}
  ]
}
